Results published in patent US20020107195A1, “Method for inducing chemotaxis in endothelial cells by administering stromal cell derived factor-1alpha” (SmithKline Beecham Corporation, priority 1998, published 2002).
Entries after “also recorded” stand apart in the source; their conditions may differ. *1 amine or outer side, *2 acyl side, *3 side chain or, on linkers, in order; H or OH if unused. Where a SMILES comes first, the peptide text is derived from it. Bridges are numbered along the chain shown (N, C = ends). Roman numbers before positions name the chains, in order. [ ]: non-standard residue; d: D form. Actinocin(9to1) = Cc1c2oc3c(C)ccc(C(=O)[*:1])c3nc-2c(C(=O)[*:2])c(N)c1=O; NMeV = CN[C@H](C(=O)O)C(C)C; Sar = CNCC(=O)O

B1: MIP-1α: chemokine from R&D Systems (protein, UniProt P10147 24-92, looked up)
C-C motif chemokine 3: SLAADTPTACCFSYTSRQIPQNFIADYFETSSQCSKPGVIFLTKRSRQVCADPSEEWVQKYVSDLELSA
B2: PF-4: chemokine from R&D Systems (protein, UniProt P02776 32-101, looked up)
Platelet factor 4: EAEEDGDLQCLCVKTTSQVRPRHITSLEVIKAGPHCPTAQLIATLKNGRKICLDLQAPLYKKIIKKLLES
B3: RANTES: chemokine from R&D Systems (protein, UniProt P13501 24-91, looked up)
C-C motif chemokine 5: SPYSSDTTPCCFAYIARPLPRAHIKEYFYTSGKCSNPAVVFVTRKNRQVCANPEKKWVREYINSLEMS

Key:
Assay type in all cases: cell-based, human
[1] = system: CXCR4 mRNA; experiment: Northern blot analysis of steady state CXCR4 mRNA levels in HUVEC treated with mediators; details: for CXCR4 mRNA levels (normalized against GAPDH): HUVEC, after 24 hours of treatment
Protocol: Total RNA (10 μg/lane) was fractionated on 1% agarose-formaldehyde gels, transferred to a nylon membrane (Amersham Corp., Piscataway, N.J.) and covalently linked with a UV crosslinker (Stratagene Inc., La Jolla, Calif.). For Northern analysis, 515-base pair size cDNA probes of CXCR1, CXCR2, CXCR3, CXCR4, CCR1, CCR2 and CCR3, were used. The GAPDH gene probe (Clontech, Palo Alto, Calif.) was used to normalize RNA sample differences in each lane. The probes were labeled with [a-^32P] dCTP using a random-prime labeling kit (Promega Corp., Madison, Wis.), and hybridized overnight at 42° C. in 6X SSC buffer (1X SSC=150 mM NaCL, 15 mM Na Citrate), .1% sodium dodecyl sulfate, 5X Denhardt's solution, 50% formamide, and 100 μg/ml denatured salmon sperm DNA. Membranes were washed with a final stringency of 0.2X SSC at 60° C., and analyzed with a phosphorimager (Molecular Dynamics, Inc., Sunnyvale, Calif.) after exposure at room temperature for 3-5 days. Densitometry was used for quantitative analysis.
CXCR4 transcripts are well expressed in many non-hematopoietic vascular tissues like heart, brain, lung and colon. Federsppiel, et al. Genomics 16: 707-712 (1993). However, at the cellular level, this expression was selective for EC, as indicated by the failure of total RNA from human pulmonary artery smooth muscle cells (HPASMC) to hybridize with the CXCR4 cDNA probe. To understand the regulation of CXCR4 in EC during inflammation, we treated the HUVEC with various mediators and measured its steady state mRNA levels after normalization against the GAPDH cDNA probe.
In order to understand the kinetics of inflammation mediated transcriptional regulation of CXCR4, actinomycin D was used to determine the half-life of CXCR4 mRNA. […] Many cytokines and cytokine receptors, including CXCR4, have A-U rich elements in their untranslated regions that serve as targeting motifs for transcript degradation by specific RNAses. Shaw, et al., Cell 46: 659-667 (1986). In addition to its action as a transcriptional inhibitor, actinomycin D also has the unique and immediate effect of imparting stability to existing transcripts of mRNA undergoing rapid turnover.

[2] = system: HUVEC; experiment: HUVEC migration (chemotaxis) assay, Transwell; details: for effect on EC chemotaxis: HUVEC
Protocol: HUVEC migration assay was performed using 5×10^5 cells/well (in CS-C medium) in the top chamber of a 6.5 mm diameter, 8-μM pore polycarbonate Transwell culture insert (Costar, Cambridge, Mass.) as reported previously (36). Incubation was carried out at 37° C. in 5% CO2 for 20 hrs. After incubation, migrated cells in the lower chamber were counted with a ZM Coulter counter (Coulter Diagnostics, Hialeah, Fla.). Percent migration was calculated based on the total initial input cells per well.
The Applicant next studied the chemotactic response of EC to SDF-1α. SDF-1α induced a pronounced migration of ˜40% of input EC in a concentration-related manner with an EC50 of 10-20 nM. It is intriguing to observe the high percentage of EC that migrated in response to SDF-1α, even though EC have limited migratory capability in comparison with neutrophils and monocytes. In contrast with other EC chemo-attractants like vitronectin, the chemotactic response to SDF-1α was kinetically robust, and a majority of the migrated cells entered the lower chamber without adhering to the Transwell filter. In these experiments, other chemokines like γ-IP10, IL-8, MIP-1α, MCP-1, eotaxin and RANTES had no effect on EC chemotaxis. Taken together, these observations have obvious biological significance, in that they indicate that SDF-1α plays a role in re-endothelialization after injury, an event that requires the directed migration of EC.

[3] = system: HUVEC; experiment: Measurement of intracellular calcium [Ca2+]i in EC (fura-2); details: for elevation of [Ca+2]i (mobilization of intracellular Ca2+): HUVEC / EC
Protocol: For measurements of intracellular calcium [Ca^2+]i, EC were loaded with 2 μM fura-2/AM (Molecular Probes, Eugene, OR), rinsed with 1 mM EDTA in Dulbecco's PBS, and resuspended into Kreb's Ringer's Henseleit (KRH) buffer, pH 7.4, containing 0.1% gelatin. Cells (1x 10^6/ml) were stored on ice and diluted for use 1:1 with fresh KRH buffer at 37° C. Fluorescence of fura-2 in cells was measured with a University of Pennsylvania Biomedical Instruments Group dual channel fluorometer. Data was captured as voltage recordings with the aid of a PC and analyzed by Igor version 1.28 software (WaveMetrics, Lake Oswego, Oreg.). Chemokines were added from concentrated stocks in water. To establish the integrity of EC, we also measured [Ca^2+]i stimulated by thrombin.
To determine whether the human EC express a functional CXCR4 receptor, our subsequent studies used SDF-1α along with several other chemokines to assess their ability to induce changes in intracellular levels of Ca^+2 and cause migration. […] In contrast, other chemokines like γ-IP10, IL-8, PF-4, MIP-1α, MCP-1, eotaxin and RANTES had no effect on EC.

| Molecule | CXCR4 mRNA levels (normalized against GAPDH) [1] | effect on EC chemotaxis [2] | elevation of [Ca+2]i (mobilization of intracellular Ca2+) [3] | further results |
| --- | --- | --- | --- | --- |
| Cc1c2oc3c(C)ccc(C(=O)N[C@@H]4C(=O)N[C@H](C(C)C)C(=O)N5CCC[C@H]5C(=O)N(C)CC(=O)N(C)[C@@H](C(C)C)C(=O)O[C@@H]4C)c3nc-2c(C(=O)N[C@@H]2C(=O)N[C@H](C(C)C)C(=O)N3CCC[C@H]3C(=O)N(C)CC(=O)N(C)[C@@H](C(C)C)C(=O)O[C@@H]2C)c(N)c1=O [actinomycin D] (I: T[dV]P[Sar][NMeV] / II: T[dV]P[Sar][NMeV]; ester I:1-I:C, II:1-II:C; linker I:N-II:N via Actinocin(9to1)) | almost complete abrogation |  |  | steady state levels of CXCR4 mRNA after short term exposure ([1]; EC cultures, exposure of only 15-30 minutes): sharply increasing |
| IFN-γ: recombinant human IFN-γ purchased from Genzyme | decrease |  |  |  |
| IL-1β: recombinant human IL-1β purchased from Genzyme | significant induction |  |  |  |
| IL-8: chemokine from R&D Systems |  | no effect | no effect |  |
| MCP-1: chemokine from R&D Systems |  | no effect | no effect |  |
| SDF-1α: stromal cell derived factor-1α, polypeptide of SEQ ID NO:4, CXC chemokine ligand of CXCR4; obtained from Gryphon Sciences |  |  | rapid, though variable elevation; also recorded: induced a rapid mobilization | migration, percent of input EC ([2]; 20 hrs incubation, Transwell): ~40%; EC50 ([2]; concentration-related migration of EC): 10 to 20 nM; concentration of maximal [Ca+2]i response ([3]; HUVEC): 100 nM |
| TGF-β | no effect |  |  |  |
| TNF-α | to a lesser extent, TNF-α, caused a decrease |  |  |  |
| eotaxin: chemokine from R&D Systems |  | no effect | no effect |  |
| γ-IP10: chemokine from R&D Systems | no effect | no effect | no effect |  |
| B1 |  | no effect | no effect |  |
| B2 |  |  | no effect |  |
| B3 |  | no effect | no effect |  |
